According to US9750689B2, “Transdermal silicone gel (silogel) compositions and methods of preparation” (Humco Holding Group, Inc., priority 2013, dated 2017):
Read-outs that look alike come from different tables or passages of the source.

Experiment: Percutaneous absorption testing (percent of applied dose that penetrated past the stratum corneum)
Source text: See Jorge, L., et al., Journal of Pain Research, Topical Preparations for Pain Relief—Efficacy and Patient Adherence, Vol. 4, No. 11-24, 2011.

[1] = 2 Hours, eight drugs dissolved together in Salt-Stable LS Advanced
[2] = 4 Hours, eight drugs dissolved together in Salt-Stable LS Advanced
[3] = 8 Hours, eight drugs dissolved together in Salt-Stable LS Advanced
[4] = 12 Hours, eight drugs dissolved together in Salt-Stable LS Advanced
[5] = 24 Hours, eight drugs dissolved together in Salt-Stable LS Advanced
[6] = 32 Hours, eight drugs dissolved together in Salt-Stable LS Advanced
[7] = 48 Hours, eight drugs dissolved together in Salt-Stable LS Advanced

Row | SMILES | Percutaneous Absorption Testing, 2 Hours (2 h) [%] | Percutaneous Absorption Testing, 4 Hours (4 h) [%] | Percutaneous Absorption Testing, 8 Hours (8 h) [%] | Percutaneous Absorption Testing, 12 Hours (12 h) [%] | Percutaneous Absorption Testing, 24 Hours (24 h) [%] | Percutaneous Absorption Testing, 32 Hours (32 h) [%] | Percutaneous Absorption Testing, 48 Hours (48 h) [%] | further results
1 | NCC(CC(=O)O)c1ccc(Cl)cc1 (stereo not shown) [Baclofen] | 0 | 1 | 2 | 3 | 4 | 5 | 6 | –
2 | CCCCN1CCCCC1C(=O)Nc1c(C)cccc1C (stereo not shown) [Bupivacaine] | 0 | 1 | 1 | 2 | 3 | 4 | 4 | –
3 | CN(C)CCC=C1c2ccccc2C=Cc2ccccc21 [Cyclobenzaprine] | 0 | 2 | 3 | 5 | 7 | 8 | 10 | –
4 | O=C(O)Cc1ccccc1Nc1c(Cl)cccc1Cl [Diclofenac] | 0 | 1 | 4 | 4 | 7 | 10 | 10 | –
5 | NCC1(CC(=O)O)CCCCC1 [Gabapentin] | – | – | – | – | – | – | – | Percutaneous Absorption Testing, 2 Hours [1]: 0%; Percutaneous Absorption Testing, 4 Hours [2]: 0%; Percutaneous Absorption Testing, 8 Hours [3]: 1%; Percutaneous Absorption Testing, 12 Hours [4]: 2%; Percutaneous Absorption Testing, 24 Hours [5]: 2%; Percutaneous Absorption Testing, 32 Hours [6]: 3%; Percutaneous Absorption Testing, 48 Hours [7]: 3%
6 | CC(C)Cc1ccc(C(C)C(=O)O)cc1 (stereo not shown) [Ibuprofen] | – | – | – | – | – | – | – | Percutaneous Absorption Testing, 2 Hours: 5%; Percutaneous Absorption Testing, 4 Hours: 8%; Percutaneous Absorption Testing, 12 Hours: 20%; Percutaneous Absorption Testing, 24 Hours: 30%; Percutaneous Absorption Testing, 32 Hours: 39%; Percutaneous Absorption Testing, 48 Hours: 39%
7 | CNC1(c2ccccc2Cl)CCCCC1=O (stereo not shown) [Ketamine] | – | – | – | – | – | – | – | Percutaneous Absorption Testing, 2 Hours [1]: 4%; Percutaneous Absorption Testing, 4 Hours [2]: 7%; Percutaneous Absorption Testing, 8 Hours [3]: 20%; Percutaneous Absorption Testing, 12 Hours [4]: 25%; Percutaneous Absorption Testing, 24 Hours [5]: 38%; Percutaneous Absorption Testing, 32 Hours [6]: 51%; Percutaneous Absorption Testing, 48 Hours [7]: 51%
8 | CC(=O)CCCCn1c(=O)c2c(ncn2C)n(C)c1=O [Pentoxifylline] | 3 | 7 | 26 | 34 | 53 | 71 | 71 | –
